# Source: PubChem BioAssay AID2253 (Southern Research Specialized Biocontainment Screening …, 2010)
# Tested on: THP-1 viability, CellTiter-Glo luminescence, 72 h
# Assay: human monocytic cell viability reduction – S. typhimurium screen hits, cytotoxicity control for Salmonella PhoP regulon inhibitors, dose response (AID 2253)
row,Compound,EC50 [µM]
1,O=C(N/N=C\c1cccc([N+](=O)[O-])c1O)C1COc2ccccc2O1 (stereo not drawn),21.5
2,CNc1nc(-c2ccccn2)nnc1-c1ccccc1,8.38
3,CC(=O)NC(c1cccs1)c1cc([N+](=O)[O-])c2cccnc2c1O (stereo not drawn),10.1
4,CN(C)C=NC(=O)c1[nH]c2ccc(Cl)cc2c1-c1ccccc1,13.6
5,C=CCc1cccc(C2Nc3ccccc3C(=O)N2O)c1O (stereo not drawn),43.1
6,C[C@H]1c2cccc(O)c2C(O)=C2C(=O)[C@]3(O)C(O)=C(C(N)=O)C(=O)[C@@H](N(C)C)[C@@H]3[C@@H](O)[C@@H]21,27.5
7,CCC(C)(C)c1ccc(OCCCC[n+]2ccccc2)c(C(C)(C)CC)c1,1.2
8,Cc1c2ccncc2c(C)c2c1[nH]c1ccccc12,2.53
9,Nc1cc(Cl)c2nonc2c1[N+](=O)[O-],2.24
10,O=C1c2ccccc2NC(c2ccc(-c3ccc(Br)cc3)o2)N1O (stereo not drawn),7.16
11,Cc1nc([N+](=O)[O-])c(Br)n1CC(=O)c1ccccc1,17.7
12,NNC(=O)CNC(c1ccccc1)c1cc(Br)ccc1NC(=O)c1ccc(Br)cc1 (stereo not drawn),39.5
13,CCN(CC)CCOc1ccc2c(c1)C(=NNC(=O)c1ccccn1)c1cc(OCCN(CC)CC)ccc1-2,3.57
14,C#CCN1C(=O)C(O)(CC(=O)c2ccc(OC)c(OC)c2)c2ccccc21 (stereo not drawn),30.5
15,COc1ccc(C(=O)Cn2nc(CNc3ccc(Br)cc3)[n+]3c2CCCCC3)cc1,7.74
16,CCCCn1c(/N=C/c2c[nH]c3ccccc23)nc2ccccc21,27.2
17,O=C(CSc1ccccn1)N/N=C/c1cc([N+](=O)[O-])ccc1O,17.1
18,O=C(Nc1cccc(N=Cc2cc(Br)cc(Br)c2O)c1)c1ccco1,38.5
19,Cc1cc(-c2csc(N)n2)c(C)n1-c1ccccc1,16.9
20,Cc1ccc(Cn2c(=N)n(CC(=O)c3ccc([N+](=O)[O-])cc3)c3ccccc32)cc1,8.18
21,OCc1ccc(O)c2ncccc12,3.26
22,COc1ccc(/C=C2\CN(Cc3ccccc3)C/C(=C\c3ccc(OC)cc3)C2=O)cc1,12.7

row,Compound,EC50 [µM]
1,Oc1cccc(Nc2c3ccccc3nc3ccccc23)c1,12
2,COc1ccc(CNC[C@@H](CCCCN(C)Cc2ccc(OC)cc2)N2C[C@H](c3ccccc3)N(CCc3ccc(Cl)c(Cl)c3)C(=O)C2=O)cc1,3.93
3,Cc1cc(C(=O)N/N=C/c2cc(Br)cc([N+](=O)[O-])c2O)c2ccccc2n1,23
4,Cc1ccc(C(=O)O)cc1N=Cc1cc(Br)cc(Br)c1O,37.2
5,N=c1c2c(n(Cc3ccc(Br)cc3)c3c1CCC3)CCCC2,3.88
6,CCCCCCOC(=O)Sc1nc2ccccc2o1,35
7,COc1ccc(/C=N/Nc2cc(C)nc3c(C)cccc23)cc1,7.25
8,O=S1(=O)N=C(N/N=C/c2ccccn2)c2ccccc21,22.9
9,O=C(N/N=C/c1c[nH]c2ccccc12)c1cc(-c2cccc3ccccc23)n[nH]1,13.8
10,Oc1ccc(/C=N/Nc2nccnc2Cl)c(O)c1,1.39
11,O=C(Oc1c(Cl)cc(Cl)c2cccnc12)c1ccco1,11.5
12,O=C(Nc1nc(-c2ccncc2)cs1)C1c2ccccc2Oc2ccccc21,16.9
13,CC1OC(Nc2cccc3ccccc23)C(O)C(O)C1O (stereo not drawn),12
14,O=C(O)CSc1cc(NS(=O)(=O)c2cccc([N+](=O)[O-])c2)c2ccccc2c1O,8.07
15,O=c1[nH]c(NNC(=S)NCc2ccccc2)nc2c1C1(CCCCC1)Cc1ccccc1-2,45.1
16,NCCc1c(-c2ccccc2)n(-c2ccccc2)c2ccccc12,4.76
17,CC1CCN(c2ccc(NC(=S)NC(=O)c3ccc(-c4cccc([N+](=O)[O-])c4)o3)cc2)CC1,23.1
18,CC[C@H]1OC(=O)C[C@@H](O)[C@H](C)[C@@H](O[C@@H]2O[C@H](C)C[C@H](N(C)C)[C@H]2O)[C@@H](CC=O)C[C@@H](C)C(=O)C=C[C@]2(C)O[C@H]2[C@@H]1C,11.9
19,O=C(CSCc1ccccc1)N/N=C/c1ccccc1OCc1ccccc1,46.6
20,c1ccc(CNc2nc(N3CCN(Cc4ccccc4)CC3)nc3ccccc23)cc1,21.6
21,Oc1ccc(CN2CCCc3ccccc32)c2cccnc12,3.37
